We go through 3 compounds from publication PMC10860144, “Exploring the Dispersion and Electrostatic Components in Arene–Arene Interactions between Ligands and G4 DNA to Develop G4-Ligands” (Journal of Medicinal Chemistry, 2024).

One series is described as follows: Solubility at pH 7.4. It counts as physicochemical. Here is the method:
Physicochemical properties
The Physicochemical profiling (LogD, Solubility, Caco-2 cell permeability) was performed as previously
described.8 Cell viability was performed as described below.
Table S2. Pharmacokinetic Properties
Compound Structure logD, Solubility, Rat hepsa Human mics b

Series [1] in a line: Intrinsic clearance in rat hepatocytes. The class given is in vitro ADME. Here is the method: All compounds (2–11, 25–29) were screened for their logD and solubility at pH 7.4 and for their intrinsic clearance in rat hepatocytes and human microsomes (Table S2). […] Replacing the basic amine side chain to a methyl substituent in the quinazolines (25–29) still retained good solubility (134 to over 1000 μM) but increased clearance in both rat hepatocytes and human microsomes. The logD was low for compounds with a basic amine side chain (2–11) and increased slightly when the amine was replaced with a methyl (25–29). As expected, additional substituents also affected the logD with the chloro-substituents increasing logD the most.
a Intrinsic clearance in rat hepatocytes ((μL/min)/10^6 cells).b Intrinsic clearance in human microsomes (μL/min/mg). […]

For a further series, the target named is c-MYC Pu22 G4 DNA. The series is described as follows: Microscale thermophoresis (MST), c-MYC Pu22 G4 DNA. It counts as binding, human. Conditions: Cy5-labeled c-MYC Pu22 G4 DNA 25 nM; pH 7.4, 100 mM KCl; read-out: apparent Kd (MST). Here is the method: To evaluate the apparent binding affinities (Kd) for the compound series, we next used microscale thermophoresis (MST) with fluorescently labeled c-MYC Pu22 G4 DNA (Table S1). Overall, the measured MST binding results for compounds 2–11 corresponded well with the results from the FRET assay (Figures 2B and S3).
5′-Cy5 labeled G4 DNAs for this study were purchased from Eurofins Genomics. Stock solutions were prepared in water at 100 μM concentration. The sequences used are listed in Supporting Information Table S1. The G4 DNA sequences were folded in KCl buffer (10 mM phosphate, 100 mM KCl, pH 7.4) by heating at 95 °C for 5 min and then cooling to room temperature. All the experiments were performed in 10 mM phosphate pH 7.4, 100 mM KCl, and 0.05% Tween20. The labeled DNA concentration is held constant at 25 nM, and ligand concentration is varied depending on ligands Kd (16 1:3 dilutions). The samples were loaded into standard MST graded glass capillaries and initial fluorescence intensity of the capillary was measured using Monolith NT.115 (Nano Temper, Germany) with 20% LED power. The change in fluorescence with ligand’s concentrations were plotted in Excel and fitted through nonlinear equation to obtain the binding constants. […]
Microscale Thermophoresis (MST)
5'- Cy5 labelled G4 DNAs for this study were purchased from Eurofins Genomics. Stock solutions were prepared in water at […] concentration. The sequences used are listed in supplementary Table S1. The G4 DNA sequences were folded in KCl buffer (10 mM phosphate, 100 mM KCl, pH 7.4) by heating at 95 °C for 5 min and then cooling to room temperature. All the experiments were performed in 10 mM phosphate pH 7.4, 100 mM KCl, 0.05% Tween20. The labelled DNA concentration is held constant at 25 nM and ligand concentration is varied depending on ligands Kd (sixteen 1:3 dilutions). The samples were loaded into standard MST graded glass capillaries and initial fluorescence intensity of the capillary were measured using Monolith NT.115 (Nano Temper, Germany) with 20% LED power. The change in fluorescence with ligand's concentrations were plotted in Excel and fitted through non-linear equation to obtain the binding constants.
(1 picture or pasted object on this page, not shown here)

Series [2] deals with G4 structure on DNA template (PEPu24T). The series is described as follows: Taq polymerase stop (primer extension) assay, G4 template. It counts as biochemical. The source says:
To challenge all the synthesized compounds (2–11 and 25–29) in a more intricate context, we conducted a Taq polymerase stop assay to evaluate their capacity to impede DNA synthesis through G4 stabilization. In this assay, we compared the progress of the Taq DNA polymerase along two distinct DNA templates: one with a G4 structure (Figure 5) and another serving as a non-G4 control (Figure S21). If an external species (e.g., G4 ligand) binds and stabilizes the G4 structure, the polymerase will be partially halted. The extent of this DNA polymerase stalling is dependent on the ability of the compound to stabilize the G4 on the DNA template. The increased G4 stabilization can be detected as a reduction in the amount of newly synthesized DNA that has reached the end of the DNA template (full-length/end-product). Analysis of these shorter terminated DNA products will give information about the precise location of the DNA polymerase stalling with a single nucleotide resolution. If the ligand imposes little to no stabilization or binding, the G4 is readily resolved by the DNA polymerase, and no difference in the amount of DNA end-product can therefore be expected upon the addition of the compound.
Templates for the primer extension assay were created by annealing 25 nt TET labeled primer (1 μM final concentration) to either PEPu24T or a mutated sequence not forming a G4, PEPu24T mut, (1.25 μM final concentration) in 100 mM KCl by heating to 95 °C for 5 min and slowly cooling to room temperature. […] Compounds were added in the indicated concentration and incubated on ice for 10 min before starting the reaction by adding dNTPs (100 μM final concentration) to the reaction and transferring it to 37 °C. Reactions were stopped after 15 min by addition of 10 μL of formamide loading buffer (0.5% SDS, 25 mM EDTA, 95% v/v formamide and xylene-cyanol). Samples were then loaded on a 12% polyacrylamide gel containing 7 M urea and 25% formamide and imaged using an Amersham Typhoon. The images were quantified using ImageJ 1.53e software, and the percentage of full-length product compared to a sample without compound was calculated.
Templates for the primer extension assay were created by annealing 25nt TET labelled primer (1 µM final concentration) to either PEPu24T or a mutated sequence not forming a G4, PEPu24T mut, (1.25 µM final concentration) in 100 mM KCl by heating to 95 °C for 5 min and slowly cooling to room temperature. The reaction mixture (10 µl) contained 1X Taq Buffer with KCl (10 mM Tris-HCl pH 8.8, 50 mM KCl, detergent), 25 mM MgCl2, […]
[…] Compounds were added in the indicated concentration and incubated on ice for 10 min before starting the reaction by adding dNTPs (100 µM final concentration) to the reaction and transferring it to 37 °C. Reactions were stopped after 15 min by addition of 10 µl of formamide loading buffer (0,5% SDS, 25 mM EDTA, 95% v/v formamide and xylene-cyanol). Samples were then loaded on a 12% polyacrylamide gel containing 7 M urea and 25% formamide and imaged using an Amersham™ Typhoon™.
The images were quantified using ImageJ 1.53e software and the percentage of full-length product compared to a sample without compound was calculated. […]

Converted amounts (≈) assume the structure as drawn.

As a reminder, the solubility is the concentration that dissolves in the medium under given conditions. `Cc1cc(C)c2nc(Nc3nc(C)cc(C)n3)nc(C)c2c1` [Compound 27, N-(4,6-Dimethylpyrimidin-2-yl)-4,6,8-trimethylquinazolin-2-amine]: in “Solubility at pH 7.4”, the concentration in solution (solubility) came to 264 µM (≈ 77.5 µg/mL). Moreover, the “Rat heps: intrinsic clearance in rat hepatocytes” value (“Rat heps: intrinsic clearance” below) in series [1] was 27 (μL/min)/106 cells. The Kd on c-MYC Pu22 G4 DNA turned out to be 800 nM. In series [2] (G4 template, DNA 0.048 μM, read-out: concentration reaching 50% inhibition of DNA end-product), the IC50 turned out to be 1200 nM.
Take `Cc1cc(C)c2nc(Nc3nc(C)cc(NCCCN(C)C)n3)nc(C)c2c1` [Compound 5, N4-(3-(Dimethylamino)propyl)-6-methyl-N2-(4,6,8-trimethylquinazolin-2-yl)pyrimidine-2,4-diamine]: the concentration in solution in “Solubility at pH 7.4” (solubility) was 962 µM (≈ 365 µg/mL). Moreover, the “Rat heps: intrinsic clearance” value in series [1] is reported as 1 (μL/min)/106 cells. Moreover, the Kd at c-MYC Pu22 G4 DNA was found to be 50 nM. In addition, the “blocking of the Taq DNA polymerase at the G4 structure (in words)” value in series [2] (compound 0.24 μM) is listed as “almost completely blocked”.
`Cc1cc(NCCCN(C)C)nc(Nc2ncc3ccccc3n2)n1` [Compound 2, N4-(3-(Dimethylamino)propyl)-6-methyl-N2-(quinazolin-2-yl)pyrimidine-2,4-diamine] returned a solubility in the series “Solubility at pH 7.4” of more than 1000 µM. Also, the “Rat heps: intrinsic clearance” value in series [1] was 8 (μL/min)/106 cells. For the same compound, on c-MYC Pu22 G4 DNA, the Kd is 1400 nM. For the same compound, the “full-length DNA product” value in series [2] (compound 0.24 μM, compared to DMSO control) is listed as “about 65%”.
